Here are results for three compounds from patent publication US8026244B2, “Thioxanthine derivatives and their use as inhibitors of MPO” (AstraZeneca AB, priority 2006, dated 2011).

In the experiment the target is T1, human MPO (Homo sapiens, UniProt P05164).
T1 sequence (P05164 49-745): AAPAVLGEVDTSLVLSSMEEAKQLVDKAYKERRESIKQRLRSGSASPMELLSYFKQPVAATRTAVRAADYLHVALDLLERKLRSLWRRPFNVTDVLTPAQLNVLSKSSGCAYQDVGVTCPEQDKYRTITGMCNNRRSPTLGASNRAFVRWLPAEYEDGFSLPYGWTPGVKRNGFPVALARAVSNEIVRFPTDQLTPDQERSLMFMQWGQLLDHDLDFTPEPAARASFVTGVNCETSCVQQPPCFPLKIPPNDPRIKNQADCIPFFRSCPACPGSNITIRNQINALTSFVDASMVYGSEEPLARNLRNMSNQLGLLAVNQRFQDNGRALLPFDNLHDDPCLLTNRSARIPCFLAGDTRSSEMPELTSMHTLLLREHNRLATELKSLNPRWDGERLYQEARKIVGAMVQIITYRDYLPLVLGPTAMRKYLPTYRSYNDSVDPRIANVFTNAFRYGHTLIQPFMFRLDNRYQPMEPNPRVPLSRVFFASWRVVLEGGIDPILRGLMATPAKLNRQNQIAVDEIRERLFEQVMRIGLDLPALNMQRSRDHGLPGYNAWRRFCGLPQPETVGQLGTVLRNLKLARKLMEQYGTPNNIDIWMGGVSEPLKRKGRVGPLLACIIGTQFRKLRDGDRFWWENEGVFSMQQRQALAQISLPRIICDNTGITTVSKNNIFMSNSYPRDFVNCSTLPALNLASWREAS
As to the kind of experiment: MPO inhibition screen (TMB oxidation, absorbance), compounds alone or with added tyrosine. It counts as biochemical. The conditions noted are these: in the presence of tyrosine (final concentration 8 μM); human MPO 2.5 nM; H2O2 100 μM; pH 6.5. Here is the method: Methods for the determination of MPO inhibitory activity are disclosed in patent application WO 02/090575. The pharmacological activity of compounds according to the invention was tested in the following screen in which the compounds were either tested alone or in the presence of added tyrosine:
Assay buffer: 20 mM sodium/potassium phosphate buffer pH 6.5 containing 10 mM taurine and 100 mM NaCl.
Developing reagent: 2 mM 3,3′,5,5′-tetramethylbenzidine (TMB), 200 μM KI, 200 mM acetate buffer pH 5.4 with 20% DMF.
To 10 μl of diluted compounds in assay buffer, 40 μl of human MPO (final concentration 2.5 nM), with or without 20 μM tyrosine (final concentration, if present, 8 μM), was added and the mixture was incubated for 10 minutes at ambient temperature. Then 50 μl of H2O2 (final concentration 100 μM), or assay buffer alone as a control, were added. After incubation for 10 minutes at ambient temperature, the reaction was stopped by adding 10 μl 0.2 mg/ml of catalase (final concentration 18 μg/ml). The reaction mixture was left for an additional 5 minutes before 100 μl of TMB developing reagent was added. The amount of oxidised 3,3′,5,5′-tetramethylbenzidine formed was then measured after about 5 minutes using absorbance spectroscopy at about […]. IC50 values were then determined using standard procedures.
One may read the IC50 as the point on the concentration scale where inhibition reaches its midpoint. Turning to `CC(Cn1c(=S)[nH]c(=O)c2[nH]cnc21)NCc1cccn1C` (stereo not drawn) [Example 44, 3-(2-{[(1-methyl-1H-pyrrol-2-yl)methyl]amino}propyl)-2-thioxo-1,2,3,7-tetrahydro-6H-purin-6-one], the 50% inhibitory concentration (IC50) was determined as 2200 nM.
Turning to `O=c1[nH]c(=S)n(Cc2ccncc2)c2nc[nH]c12` [Example 3, 3-(pyridin-4-ylmethyl)-2-thioxo-1,2,3,7-tetrahydro-6H-purin-6-one], the IC50 came to 100 nM.
The value for `CC(c1nc2ccccc2[nH]1)n1c(=S)[nH]c(=O)c2[nH]cnc21` (stereo not drawn) [Example 9, 3-[1-(1H-benzimidazol-2-yl)ethyl]-2-thioxo-1,2,3,7-tetrahydro-6H-purin-6-one] was 10000 nM.
